{
  "source": "patent US20220331458A1",
  "about": "“AGENTS FOR CLEAVING LABELS FROM BIOMOLECULES IN VIVO” (TAGWORKS PHARMACEUTICALS B.V., priority 2019, published 2022)",
  "key": {"[1]": {"system": "radiolabeled mAb-conjugates", "assay": "In vitro Label release from radiolabeled mAb-TCO-chelate conjugates incubated with Cleaving Agents (SEC)", "settings": "Label release from TCO derivative 1.8 on trastuzumab, ^111In; 50% mouse plasma in PBS, 37°C, 15-24 h", "procedure": "Briefly, mAb solutions in PBS (4 mg/mL final concentration) were added with 15-20 eq of the NHS-derivative (dissolved at 10 mg/mL in DMSO) and the pH was adjusted to 9 with 1M sodium carbonate. The reaction mixtures were incubated at rt in the dark for 2 h then the products were purified by dialysis (20 kDa MW cut-off membranes) in chelex-treated 0.25M NH4OAc pH 5.5.\nAfter 15-24 h incubation the mixtures were analyzed by SEC and the amount of released Label was quantified from the radioactivity elution profile."}, "[2]": {"parameters": "species or system mice", "settings": "female, Balb/C nude, mouse, in vivo", "procedure": "Blood samples were withdrawn 5 min before and at various times after Cleaving Agent administration and the radioactivity was measured in a gamma-counter."}},
  "note": "Marks after values point to notes of the source that are not given here.",
  "data": [
    {"smiles": "O=C(O)CCCC(=O)Nc1cccnc1-c1nnc(-c2ncccc2NC(=O)CCCC(=O)O)nn1", "note": "[Compound 2.7, 5,5′-((2,2′-(1,2,4,5-Tetrazine-3,6-diyl)bis(pyridine-3,2-diyl))bis(azanediyl))bis(5-oxopentanoic acid)]", "values": [
      {"measurement": "release (%)", "setting": "[1]", "value": "55.3^a %"},
      {"measurement": "decrease of radioactivity circulating in blood", "setting": "[2]", "value": "ca. 30%"}
    ]}
  ]
}
